Patent US7098204B2 (C.N.R.S., priority 1999, dated 2006)

How the values were obtained:
CDK1/cyclin B = CDK1/cyclin B kinetic experiments varying ATP and HD; type: biochemical, starfish (Marthasterias glacialis)
Protocol: Blank values were subtracted and activities calculated as pmoles of phosphate incorporated for a 10 min. incubation (usually expressed in % of the maximal activity, i.e. without inhibitors). Controls were performed with appropriate dilutions of Me2SO. In some cases phosphorylation of the substrate was assessed by autoradiography after SDS-PAGE. IC50 values were estimated from the dose-response curves. • CDK1/cyclin B was extracted in homogenisation buffer from M phase starfish (Marthasterias glacialis) oocytes and purified by affinity chromatography on p9^CKShs1-Sepharose beads, from which it was eluted by free p9^CKShs1 as described. […] ATP (3,000 Ci/mmol; 1 mCi/ml) in a final volume of 30 μl. After 10 min. incubation at 30° C., 25 μl aliquots of supernatant were spotted onto 2.5×3 cm pieces of Whatman P81 phosphocellulose paper, and, 20 sec. later, the filters were washed five times (for at least 5 min. each time) in a solution of 10 ml phosphoric acid/liter of water. The wet filters were counted in the presence of 1 ml ACS (Amersham) scintillation fluid. • GSK-3β was either purified from rabbit muscle or expressed in and purified from insect Sf9 cells. […] ATP (3,000 Ci/mmol; 1 mCi/ml) in a final volume of 30 μl. […]

erk1 = target: T1, erk1 (Homo sapiens, UniProt P27361); experiment: erk1 kinase assay; type: biochemical; settings: 15 μM ATP
T1 construct: His
T1 sequence (P27361 whole entry, species assumed): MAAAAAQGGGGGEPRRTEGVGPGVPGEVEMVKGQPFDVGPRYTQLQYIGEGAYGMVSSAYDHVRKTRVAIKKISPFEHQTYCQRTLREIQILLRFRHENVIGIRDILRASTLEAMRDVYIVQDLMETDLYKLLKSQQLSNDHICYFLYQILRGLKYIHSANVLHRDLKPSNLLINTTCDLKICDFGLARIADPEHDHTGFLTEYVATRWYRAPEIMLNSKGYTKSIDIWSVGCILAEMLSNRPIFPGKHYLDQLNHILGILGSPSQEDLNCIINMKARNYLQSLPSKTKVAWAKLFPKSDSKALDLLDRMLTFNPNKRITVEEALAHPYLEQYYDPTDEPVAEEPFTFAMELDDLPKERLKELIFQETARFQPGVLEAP
Protocol: Blank values were subtracted and activities calculated as pmoles of phosphate incorporated for a 10 min. incubation (usually expressed in % of the maximal activity, i.e. without inhibitors). Controls were performed with appropriate dilutions of Me2SO. In some cases phosphorylation of the substrate was assessed by autoradiography after SDS-PAGE. […] ATP (3,000 Ci/mmol; 1 mCi/ml) in a final volume of 30 μl. After 10 min. incubation at 30° C., 25 μl aliquots of supernatant were spotted onto 2.5×3 cm pieces of Whatman P81 phosphocellulose paper, and, 20 sec. later, the filters were washed five times (for at least 5 min. each time) in a solution of 10 ml phosphoric acid/liter of water. […] ATP (3,000 Ci/mmol; 1 mCi/ml) in a final volume of 30 μl. […] Its activity was assayed in buffer C as described for CDK1/cyclin B. • CDK2/cyclin A, CDK2/cyclin E, CDK3/cyclin E, CDK4/cyclin D1, CDK6/cyclin D2, His-tagged erk1 and erk2, protein kinase C isoforms, the catalytic subunit of cAMP-dependent protein kinase, cGMP-dependent protein kinase, Myosin light chain kinase, casein kinases 1 & 2, ASK-γ (a plant homologue of GSK-3), insulin receptor tyrosine kinase domain (CIRK-41), c-raf, MAPKK, c-jun N terminal kinase (obtained from Promega), c-src kinase and v-abl kinase were assayed as described [15].

protein kinase C ζ = protein kinase C ζ (Homo sapiens, UniProt Q05513); experiment: protein kinase C ζ assay; type: biochemical; settings: 15 μM ATP
Sequence of protein kinase C ζ (Q05513 whole entry): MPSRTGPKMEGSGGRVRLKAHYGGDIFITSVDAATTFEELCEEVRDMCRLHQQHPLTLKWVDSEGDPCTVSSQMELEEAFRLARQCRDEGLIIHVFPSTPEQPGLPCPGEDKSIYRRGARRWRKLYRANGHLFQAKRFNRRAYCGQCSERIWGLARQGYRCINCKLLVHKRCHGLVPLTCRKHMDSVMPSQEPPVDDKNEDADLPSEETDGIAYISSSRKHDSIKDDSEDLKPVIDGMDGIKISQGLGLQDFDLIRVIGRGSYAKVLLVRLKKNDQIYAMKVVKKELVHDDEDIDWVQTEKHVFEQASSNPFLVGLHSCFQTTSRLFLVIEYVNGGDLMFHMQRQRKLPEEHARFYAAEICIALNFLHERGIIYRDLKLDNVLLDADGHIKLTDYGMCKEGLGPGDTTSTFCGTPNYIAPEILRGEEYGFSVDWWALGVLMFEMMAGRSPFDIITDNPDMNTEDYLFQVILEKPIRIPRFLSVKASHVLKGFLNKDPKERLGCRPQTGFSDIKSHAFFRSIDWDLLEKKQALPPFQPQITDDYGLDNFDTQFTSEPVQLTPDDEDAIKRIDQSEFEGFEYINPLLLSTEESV
Protocol: Kinases activities were assayed in Buffer A or C (unless otherwise stated), at 30° C., at a final ATP concentration of 15 μM. Blank values were subtracted and activities calculated as pmoles of phosphate incorporated for a 10 min. incubation (usually expressed in % of the maximal activity, i.e. without inhibitors). Controls were performed with appropriate dilutions of Me2SO. In some cases phosphorylation of the substrate was assessed by autoradiography after SDS-PAGE. IC50 values were estimated from the dose-response curves. • CDK1/cyclin B was extracted in homogenisation buffer from M phase starfish (Marthasterias glacialis) oocytes and purified by affinity chromatography on p9^CKShs1-Sepharose beads, from which it was eluted by free p9^CKShs1 as described. The kinase activity was assayed in buffer C, with 1 mg histone H1/ml, in the presence of 15 μM [γ-^32P] ATP (3,000 Ci/mmol; 1 mCi/ml) in a final volume of 30 μl. After 10 min. incubation at 30° C., 25 μl aliquots of supernatant were spotted onto 2.5×3 cm pieces of Whatman P81 phosphocellulose paper, and, 20 sec. later, the filters were washed five times (for at least 5 min. each time) in a solution of 10 ml phosphoric acid/liter of water. The wet filters were counted in the presence of 1 ml ACS (Amersham) scintillation fluid. • GSK-3β was either purified from rabbit muscle or expressed in and purified from insect Sf9 cells. […]

GSK-3β = GSK-3β (Mus musculus, UniProt Q9WV60); experiment: MAP-1B phosphorylation by GSK-3 in cerebellar granule cells; type: cell-based, mice
Sequence of GSK-3β (Q9WV60 whole entry): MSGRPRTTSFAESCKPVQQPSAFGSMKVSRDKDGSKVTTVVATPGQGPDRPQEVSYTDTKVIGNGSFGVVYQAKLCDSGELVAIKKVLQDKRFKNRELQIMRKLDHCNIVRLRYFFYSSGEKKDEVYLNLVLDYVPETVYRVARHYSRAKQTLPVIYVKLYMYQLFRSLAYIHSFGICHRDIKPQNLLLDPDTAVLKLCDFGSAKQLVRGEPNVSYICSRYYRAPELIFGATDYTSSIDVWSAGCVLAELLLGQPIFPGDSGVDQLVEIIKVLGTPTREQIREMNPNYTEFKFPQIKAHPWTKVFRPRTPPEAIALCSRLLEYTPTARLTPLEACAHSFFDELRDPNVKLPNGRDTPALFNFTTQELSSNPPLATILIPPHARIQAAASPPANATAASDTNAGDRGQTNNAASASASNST
Protocol: Cerebellar granule cells were isolated from newborn mice and purified according to the method of Hatten using Percoll gradients. Cells were plated onto dishes coated with poly-D-lysine (100 μg/ml) and laminin (50 μg/ml) and grown in serum-free medium for 1 day, the cultures were then treated with HD (1–100 μM) for 20 h. Cultures were fixed with 4% formaldehyde in PBS and stored in PBS at 4° C. Cells were permeabilised with 100% methanol and incubated with primary antibodies against GAP-43 and MAP-1B-P (SMI-31, Affiniti) overnight at 4° C. FITC and Texas Red conjugated secondary antibodies were used (Vector). For western blot analysis, cells were lysed in sample buffer and analysed by 8% SDS-PAGE. Proteins were transferred to nitrocellulose membranes and incubated with an antibody to MAP-1B-P (SMI-31) diluted in block solution (0.1% Tween-20, 3% dried skimmed milk in TBS) for 2 h at room temperature. HRP-conjugated secondary antibodies (Amersham) were used and proteins were visualised using the ECL system (Pierce). Blots were scanned using a flat bed scanner (UMAX Astra 1200S).

casein kinase 1 = casein kinase 1 assay; type: biochemical; settings: 15 μM ATP; −(x) = no effect at highest concentration x tested; read-out: IC50 casein kinase 1 (CK 1)
Protocol: Kinases activities were assayed in Buffer A or C (unless otherwise stated), at 30° C., at a final ATP concentration of 15 μM. Blank values were subtracted and activities calculated as pmoles of phosphate incorporated for a 10 min. incubation (usually expressed in % of the maximal activity, i.e. without inhibitors). Controls were performed with appropriate dilutions of Me2SO. In some cases phosphorylation of the substrate was assessed by autoradiography after SDS-PAGE. IC50 values were estimated from the dose-response curves. • CDK1/cyclin B was extracted in homogenisation buffer from M phase starfish (Marthasterias glacialis) oocytes and purified by affinity chromatography on p9^CKShs1-Sepharose beads, from which it was eluted by free p9^CKShs1 as described. The kinase activity was assayed in buffer C, with 1 mg histone H1/ml, in the presence of 15 μM [γ-^32P] ATP (3,000 Ci/mmol; 1 mCi/ml) in a final volume of 30 μl. After 10 min. incubation at 30° C., 25 μl aliquots of supernatant were spotted onto 2.5×3 cm pieces of Whatman P81 phosphocellulose paper, and, 20 sec. later, the filters were washed five times (for at least 5 min. each time) in a solution of 10 ml phosphoric acid/liter of water. The wet filters were counted in the presence of 1 ml ACS (Amersham) scintillation fluid. • GSK-3β was either purified from rabbit muscle or expressed in and purified from insect Sf9 cells. It was assayed, following a 1/100 dilution in 1 mg BSA/ml 10 mM DTT, with 5 μl 40 μM GS-1 peptide as a substrate, in buffer A, in the presence of 15 μM [γ-^32P] ATP (3,000 Ci/mmol; 1 mCi/ml) in a final volume of 30 μl. […] Its activity was assayed in buffer C as described for CDK1/cyclin B. • CDK2/cyclin A, CDK2/cyclin E, CDK3/cyclin E, CDK4/cyclin D1, CDK6/cyclin D2, His-tagged erk1 and erk2, protein kinase C isoforms, the catalytic subunit of cAMP-dependent protein kinase, cGMP-dependent protein kinase, Myosin light chain kinase, casein kinases 1 & 2, ASK-γ (a plant homologue of GSK-3), insulin receptor tyrosine kinase domain (CIRK-41), c-raf, MAPKK, c-jun N terminal kinase (obtained from Promega), c-src kinase and v-abl kinase were assayed as described. Electrophoresis and Western Blotting

## NC1=NC(=O)C(=C2CCNC(=O)c3[nH]c(Br)cc32)N1 [hymenialdisine, 4-(2-amino-4-oxo-2-imidazolin-5-ylidene)-2-bromo-4,5,6,7-tetrahydropyrrolo (2,3-c) azepine-8-one]
CDK1/cyclin B; ATP 0.05 to 0.25 mM, histone H1 0.7 mg/ml, read-out: apparent inhibition constant (Ki)
  Ki: 50 nM
CDK1/cyclin B; double-reciprocal plots
  mechanism of inhibition: competitive inhibitor for ATP
erk1
  IC50: 470 nM
Protein kinase C ζ
  IC50: 60000 nM
GSK-3β; 1 μM, 10 μM, 25 μM, 20 h
  cell morphology and distribution of MAP-1B-P: no noticeable effect
GSK-3β; 50 μM, 20 h
  MAP-1B-P in axonal processes: loss of MAP-1B-P from most of the axonal processes
GSK-3β; 100 μM, 20 h
  MAP-1B-P in axonal processes: loss of MAP-1B-P from processes
GSK-3β; increasing doses 1–100 μM
  MAP-1B-P by Western blotting: loss of MAP-1B-P in a dose-dependent manner
Casein kinase 1
  IC50: 35 nM
